Key:
Mus musculus [1] = species: Mus musculus; experiment: Ataxia assessment was made immediately prior to NMDA injection using a rotarod measurement; format: functional
Mus musculus [2] = experiment: In vivo NMDA antagonism of compound was assessed for its ability to prevent lethality in mice due to injection of NMDA; format: functional
[3] = Log P value at pH 7.4; format: physicochemical; conditions: buffer
Glutamate NMDA receptor = experiment: Inhibitory concentration of compound required to displace [3H]TCP 1-[ 1-(2-thienyl)cyclohexyl]piperidine in whole rat brain homogenate
Mus musculus [4] = experiment: In vivo NMDA antagonism of compound was assessed for its ability to prevent lethality in mice due to injection of NMDA.; format: functional

SMILES | ED50 (Mus musculus [1]) | ED50 (Mus musculus [2]) | logD [3] | IC50 (Glutamate NMDA receptor) | ED50 (Mus musculus [4])
CN1C[C@@H]2Cc3ccccc3[C@]13CCCC[C@@H]23 | 3 mg/kg | 1.8 mg/kg | 0.94 | 137 nM | 
CN[C@]12CCCC[C@H]1CCc1ccccc12 | 0.44 mg/kg |  | 1.1 | 14.7 nM | 0.54 mg/kg
CN1CC[C@]23CCCC[C@@]12c1ccccc1CC3 | 0.3 mg/kg |  | 0.53 | 16.8 nM | 0.72 mg/kg
c1ccc2c(c1)C[C@H]1CN[C@@]23CCCC[C@@H]13 | 3.2 mg/kg |  | -0.1 | 86 nM | 3.5 mg/kg
c1ccc2c(c1)CC[C@@]13CCCC[C@]21NCC3 | 3.2 mg/kg | 3.5 mg/kg |  | 151 nM | 
C[C@]12N[C@H](Cc3ccccc31)c1ccccc12 [DIZOCILPINE] | 0.1 mg/kg |  | 2.1 |  | 0.34 mg/kg
